From ChEMBL document CHEMBL1667853, “Design and synthesis of potent Gram-negative specific LpxC inhibitors” (Bioorg Med Chem Lett, 2011)
Converted amounts (≈) assume the structure as drawn.

Assays:
Escherichia coli [1] = assay: Antimicrobial activity against Escherichia coli HS294 by broth dilution assay; assay type: functional
[2] = molecular target: T1, UDP-3-O-acyl-N-acetylglucosamine deacetylase (Escherichia coli K-12, UniProt P0A725); assay: Inhibition of Escherichia coli LpxC
T1 sequence (P0A725 whole entry): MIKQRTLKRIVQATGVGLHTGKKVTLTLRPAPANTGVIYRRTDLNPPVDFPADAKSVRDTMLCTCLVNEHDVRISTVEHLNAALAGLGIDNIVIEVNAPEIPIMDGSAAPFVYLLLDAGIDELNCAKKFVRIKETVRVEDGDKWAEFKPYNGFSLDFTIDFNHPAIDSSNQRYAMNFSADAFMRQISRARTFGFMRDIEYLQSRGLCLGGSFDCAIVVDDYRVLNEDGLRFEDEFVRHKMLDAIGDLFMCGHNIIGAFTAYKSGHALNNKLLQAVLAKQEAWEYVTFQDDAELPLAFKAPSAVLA

Escherichia coli [3] = assay: Antimicrobial activity against Escherichia coli ATCC 25922 by broth dilution assay; assay type: functional
Klebsiella aerogenes = assay: Antimicrobial activity against wild type Enterobacter aerogenes by broth dilution assay; assay type: functional
Escherichia coli [4] = assay: Antimicrobial activity against multidrug-resistant Escherichia coli by broth dilution assay; assay type: functional
Enterobacter cloacae = assay: Antimicrobial activity against ESBL producing Enterobacter cloacae by broth dilution assay; assay type: functional
Klebsiella pneumoniae [5] = assay: Antimicrobial activity against wild type Klebsiella pneumoniae by broth dilution assay; assay type: functional
Pseudomonas aeruginosa [6] = assay: Antimicrobial activity against multidrug-resistant Pseudomonas aeruginosa by broth dilution assay; assay type: functional
[7] = test system: Acinetobacter calcoaceticus; assay: Antimicrobial activity against wild type Acinetobacter calcoaceticus by broth dilution assay; assay type: functional
Klebsiella pneumoniae [8] = assay: Antimicrobial activity against ESBL producing Klebsiella pneumoniae by broth dilution assay; assay type: functional
Proteus vulgaris = assay: Antimicrobial activity against wild type Proteus vulgaris by broth dilution assay; assay type: functional
Pseudomonas aeruginosa [9] = assay: Antimicrobial activity against wild type Pseudomonas aeruginosa by broth dilution assay; assay type: functional
Serratia marcescens = assay: Antimicrobial activity against wild type Serratia marcescens by broth dilution assay; assay type: functional
Escherichia coli [10] = assay: Antimicrobial activity against wild type Escherichia coli by broth dilution assay; assay type: functional
Escherichia coli [11] = assay: Antimicrobial activity against ESBL producing Escherichia coli by broth dilution assay; assay type: functional
[12] = test system: Stenotrophomonas maltophilia; assay: Antimicrobial activity against wild type Stenotrophomonas maltophilia by broth dilution assay; assay type: functional
Acinetobacter baumannii = assay: Antimicrobial activity against wild type Acinetobacter baumannii by broth dilution assay; assay type: functional

SMILES | MIC (Escherichia coli [1]) | IC50 [2] | MIC (Escherichia coli [3]) | other results
C[C@@H](O)[C@@H](NC(=O)N1CCN(c2ccc(-c3cncs3)cc2)CC1)C(=O)NO | 3.13 µg/mL (≈ 7.72 µM) | 0.012 µM | 100 µg/mL (≈ 247 µM) | –
CCCc1cc(C2=N[C@@H](C(=O)NO)CO2)cc(OC)c1OC | – | – | – | Ki [2]: 0.05 µM
C[C@@H](O)[C@H](C(=O)NO)N1Cc2cc(C#Cc3cccc(-c4ccccc4)c3)ccc2C1=O | – | 0.971 µM | – | –
C[C@@H](O)[C@@H](NC(=O)N1CCN(c2ccc(-c3ccc(N4CCOCC4)cc3)cc2)CC1)C(=O)NO | 3.13 µg/mL (≈ 6.47 µM) | 0.0163 µM | 6.25 µg/mL (≈ 12.9 µM) | –
C[C@@H](O)[C@@H](NC(=O)N1CCN(c2ccc(C#Cc3ccc(N)cc3)cc2)CC1)C(=O)NO | 1.56 µg/mL (≈ 3.57 µM) | 0.026 µM | 3.13 µg/mL (≈ 7.15 µM) | –
C[C@@H](O)[C@@H](NC(=O)c1ccc(C#Cc2ccccc2)cc1)C(=O)NO | 0.02 µg/mL (≈ 0.0591 µM) | – | 0.08 µg/mL (≈ 0.236 µM) | MIC (Klebsiella aerogenes): 2.5 µg/mL (≈ 7.39 µM); MIC (Escherichia coli [4]): 0.63 µg/mL (≈ 1.86 µM); MIC (Enterobacter cloacae): 0.31 µg/mL (≈ 0.916 µM); MIC (Klebsiella pneumoniae [5]): 1.25 µg/mL (≈ 3.69 µM); MIC (Pseudomonas aeruginosa [6]): 0.63 µg/mL (≈ 1.86 µM); MIC [7]: 1.25 µg/mL (≈ 3.69 µM); MIC (Klebsiella pneumoniae [8]): 0.63 µg/mL (≈ 1.86 µM); MIC (Proteus vulgaris): 1.25 µg/mL (≈ 3.69 µM); MIC (Pseudomonas aeruginosa [9]): 10 µg/mL (≈ 29.6 µM); MIC (Serratia marcescens): 1.25 µg/mL (≈ 3.69 µM); MIC (Escherichia coli [10]): 0.16 µg/mL (≈ 0.473 µM); MIC (Escherichia coli [11]): 0.313 µg/mL (≈ 0.925 µM); MIC [12]: 5 µg/mL (≈ 14.8 µM); MIC (Acinetobacter baumannii): > 20 µg/mL
C[C@@H](O)[C@@H](NC(=O)N1CCN(c2ccc(C#Cc3ccc(F)cc3)cc2)CC1)C(=O)NO | 0.8 µg/mL (≈ 1.82 µM) | 0.007 µM | 3.13 µg/mL (≈ 7.11 µM) | –
O=C(N[C@H](CO)[C@H](O)c1ccc([N+](=O)[O-])cc1)C(Cl)Cl [CHLORAMPHENICOL] | – | – | – | MIC (Escherichia coli [4]): > 32 µg/mL; MIC (Pseudomonas aeruginosa [6]): > 256 µg/mL; MIC (Pseudomonas aeruginosa [9]): 2 µg/mL (≈ 6.19 µM); MIC (Escherichia coli [10]): 2 µg/mL (≈ 6.19 µM)
C[C@@H](O)[C@@H](NC(=O)N1CCN(c2ccc(C#Cc3ccc(CN4CCOCC4)cc3)cc2)CC1)C(=O)NO | 1.56 µg/mL (≈ 2.99 µM) | 0.014 µM | 6.25 µg/mL (≈ 12 µM) | –
C[C@@H](O)[C@@H](NC(=O)N1CCN(c2ccc(C#Cc3ccccc3)cc2)CC1)C(=O)NO | 0.2 µg/mL (≈ 0.473 µM) | 0.0024 µM | 1.56 µg/mL (≈ 3.69 µM) | –
C[C@@H](O)[C@H](C(=O)NO)n1[nH]c2cc(C#Cc3ccccc3)ccc2c1=O | – | 0.2 µM | – | –
CN(C)[C@@H]1C(O)=C(C(N)=O)C(=O)[C@@]2(O)C(O)=C3C(=O)c4c(O)cccc4[C@@](C)(O)[C@H]3C[C@@H]12 [TETRACYCLINE] | – | – | – | MIC (Escherichia coli [4]): > 2 µg/mL; MIC (Pseudomonas aeruginosa [6]): 16 µg/mL (≈ 36 µM); MIC (Pseudomonas aeruginosa [9]): 1 µg/mL (≈ 2.25 µM); MIC (Escherichia coli [10]): 1 µg/mL (≈ 2.25 µM)
C[C@@H](O)[C@@H](NC(=O)N1CCN(c2ccc(C#Cc3ccc(C(F)(F)F)cc3)cc2)CC1)C(=O)NO | 1.56 µg/mL (≈ 3.18 µM) | 0.0104 µM | 12.5 µg/mL (≈ 25.5 µM) | –
NC[C@@H](NC(=O)N1CCC(c2ccc(C#Cc3ccccc3)cc2)CC1)C(=O)NO | 6.25 µg/mL (≈ 15.4 µM) | 0.163 µM | 12.5 µg/mL (≈ 30.8 µM) | –
C[C@@H](O)[C@H](C(=O)NO)N1Cc2cc(-c3ccc(C#Cc4ccccc4)cc3)ccc2C1=O | – | 0.029 µM | – | –
C[C@@H](O)[C@@H](NC(=O)N1CCN(c2ccc(-c3ccccc3)cc2)CC1)C(=O)NO | 0.8 µg/mL (≈ 2.01 µM) | 0.0056 µM | 3.13 µg/mL (≈ 7.86 µM) | –
C[C@@H](O)[C@@H](NC(=O)N1CCCC(c2ccc(C#Cc3ccccc3)cc2)C1)C(=O)NO (stereo not given in full) | 25 µg/mL (≈ 59.3 µM) | 0.387 µM | > 100 µg/mL | –
C[C@@H](O)[C@@H](NC(=O)N1CCN(c2ccc(C#Cc3ccc(CC#N)cc3)cc2)CC1)C(=O)NO | 0.8 µg/mL (≈ 1.73 µM) | 0.011 µM | 6.25 µg/mL (≈ 13.5 µM) | –
C[C@@H](O)[C@H](C(=O)NO)N1Cc2ccc(C#Cc3ccccc3)cc2C1=O | – | 34 µM | – | –
C[C@@H](O)[C@@H](NC(=O)N1CCN(c2ccc(C#Cc3ccc(N4CCNCC4)cc3)cc2)CC1)C(=O)NO | 0.4 µg/mL (≈ 0.79 µM) | 0.0233 µM | 6.25 µg/mL (≈ 12.3 µM) | –
CC(C)(O)[C@@H](NC(=O)N1CCC(c2ccc(-c3ccccc3)cc2)CC1)C(=O)NO | 0.2 µg/mL (≈ 0.486 µM) | 0.0025 µM | 0.8 µg/mL (≈ 1.94 µM) | –
C[C@@H](O)[C@@H](NC(=O)N1CCN(c2ccc(C#Cc3cnccn3)cc2)CC1)C(=O)NO | 6.25 µg/mL (≈ 14.7 µM) | 0.136 µM | > 100 µg/mL | –
C[C@@H](O)[C@@H](NC(=O)N1CCN(c2ccc(C#Cc3ccc(O)cc3)cc2)CC1)C(=O)NO | 0.1 µg/mL (≈ 0.228 µM) | 0.004 µM | 1.56 µg/mL (≈ 3.56 µM) | –
C[C@@H](O)[C@@H](NC(=O)N1CCC(c2ccc(C#Cc3ccccc3)cc2)C1)C(=O)NO (stereo not given in full) | 12.5 µg/mL (≈ 30.7 µM) | 0.036 µM | 100 µg/mL (≈ 245 µM) | –
C[C@@H](O)[C@@H](NC(=O)N1CCN(c2ccc(C#Cc3ccc(N4CCOCC4)cc3)cc2)CC1)C(=O)NO | 0.1 µg/mL (≈ 0.197 µM) | 0.003 µM | 25 µg/mL (≈ 49.3 µM) | –
